Source: US10196403B2, “Compounds and compositions and uses thereof” (Sunovion Pharmaceuticals Inc., priority 2016, dated 2019)
Where two headings read alike, the source gives them in different places.

Test system: mice
Assay: Neuropharmacological Assay (SmartCube)
Type: in vivo
Conditions: for minimal effective dose: Mus musculus, read-out: POTENCY (minimal effective dose, MED); for AD: ADHD (SmartCube probability) / AG: analgesic (SmartCube probability) / AX: anxiolytic (SmartCube probability) / CE: cognitive enhancer (SmartCube probability) / DP: anti-depressant (SmartCube probability) / MS: mood stabilizer (SmartCube probability) / PS: anti-psychotic (SmartCube probability) / SD: sedative hypnotic (SmartCube probability) / UN: uncharacterized CNS activity (SmartCube probability): mice, i.p. 15 min before test, most efficacious dose(s) of 3 doses
Text: Neuropharmacological Assay (SmartCube™)
Neurosci. 2011 Sep. 9; 5:103 (doi: 10.3389/fnins.2011.00103) (“Roberds”). As reported in Roberds, because psychiatric diseases generally result from disorders of cell-cell communication, circuitry, intact systems are useful in detecting improvement in disease-relevant endpoints. These endpoints are typically behavioral in nature, often requiring human observation and interpretation. To facilitate testing of multiple compounds for behavioral effects relevant to psychiatric disease, PsychoGenics, Inc. (Tarrytown, N.Y., “PGI”) developed SmartCube™, an automated system in which behaviors of compound-treated mice are captured by digital video and analyzed with computer algorithms. (D. Brunner et al., Drug Discov. Today 2002, 7:S107-S112). PGI Analytical Systems uses data from SmartCube™ to compare the behavioral signature of a test compound to a database of behavioral signatures obtained using a large set of diverse reference compounds. (The composition of the database as well as validation of the method is further described in Roberds). In this way, the neuropharmacological effects of a test compound can be predicted by similarity to major classes of compounds, such as antipsychotics, anxiolytics and antidepressants.
The SmartCube™ system produces an activity signature indicating the probability that the activity of the test compound at the administered dose matches a given class of neuropharmacological agents. (See, e.g., Roberds, FIGS. 2 and 3). The test compound is simultaneously compared against multiple classes of agents; thus, a separate probability is generated for each behavioral effect measured (e.g., anxiolytic activity, analgesic activity, etc.). In the table below, these probabilities are reported for each behavioral effect measured as follows:
where LOQ is the limit of quantification.
Provided compounds were dissolved in a mixture of Pharmasolve™ (N-methyl-2-pyrrolidone), polyethylene glycol and propylene glycol, and were injected i.p. 15 min. before the behavioral test. For each compound, injections were administered at 3 different doses. For each behavioral effect measured, results for the most efficacious dose(s) are presented. In the table below, DP: anti-depressant; AX: anxiolytic; SD: sedative hypnotic; PS: anti-psychotic; MS: mood stabilizer; AD: ADHD; CE: cognitive enhancer; AG: analgesic; UN: uncharacterized CNS activity.
The potency of many of the compounds in the table was also determined in the SmartCube™ system. Test compounds were routinely examined at dose levels of 0.3, 1, 3 10 and 30 mg per kg (mpk), although the dose range was increased or decreased if necessary to obtain a full dose response curve. A compound's minimal effective dose (MED) is a measure of the compounds potency. The MED was defined as the dose (in mpk) having 50% or more total activity in SmartCube.

[1] = MED = dose having 50% or more total activity in SmartCube

| Compound | minimal effective dose [1] | AD: ADHD (SmartCube probability) | AG: analgesic (SmartCube probability) | AX: anxiolytic (SmartCube probability) | CE: cognitive enhancer (SmartCube probability) | DP: anti-depressant (SmartCube probability) | MS: mood stabilizer (SmartCube probability) | PS: anti-psychotic (SmartCube probability) | SD: sedative hypnotic (SmartCube probability) | UN: uncharacterized CNS activity (SmartCube probability) | minimal effective dose | POTENCY (minimal effective dose, MED) [1] |
| --- | --- | --- | --- | --- | --- | --- | --- | --- | --- | --- | --- | --- |
| CNC[C@H]1OC[C@@H](C)c2ccccc21 [Example 19, N-methyl-1-((1S,4S)-4-methylisochroman-1-yl)methanamine] | 3 to 10 mg/kg | + (LOQ≤ + <5%) | ++ (5%≤ ++ <25%) | ++ (5%≤ ++ <25%) | ++ (5%≤ ++ <25%) | ++ (5%≤ ++ <25%) | ++ (5%≤ ++ <25%) | ++ (5%≤ ++ <25%) | + (LOQ≤ + <5%) | ++ (5%≤ ++ <25%) |  |  |
| CNC[C@@H]1OCCc2ccc3c(c21)OCC3 [Example 105, (R)-N-methyl-1-(2,3,6,9-tetrahydro-7H-furo[3,2-h]isochromen-9-yl)methanamine] | < 3 mg/kg | + (LOQ≤ + <5%) | + (LOQ≤ + <5%) | ++ (5%≤ ++ <25%) | + (LOQ≤ + <5%) | ++ (5%≤ ++ <25%) | + (LOQ≤ + <5%) | ++ (5%≤ ++ <25%) | +++ (25%≤ +++ <50%) | + (LOQ≤ + <5%) |  |  |
| Fc1cccc2c1[C@@H](CNC1CCC1)OCC2 [Example 96, (S)-N-((8-fluoroisochroman-1-yl)methyl)cyclobutanamine] |  | + (LOQ≤ + <5%) | + (LOQ≤ + <5%) | + (LOQ≤ + <5%) | + (LOQ≤ + <5%) | + (LOQ≤ + <5%) | + (LOQ≤ + <5%) | + (LOQ≤ + <5%) | +++ (25%≤ +++ <50%) | + (LOQ≤ + <5%) | 10 to 30 mg/kg |  |
| CN(C)C[C@H]1OCCc2cccc(F)c21 [Example 84, (S)-1-(8-fluoroisochroman-1-yl)-N,N-dimethylmethanamine] | < 3 mg/kg | + (LOQ≤ + <5%) | ++ (5%≤ ++ <25%) | ++ (5%≤ ++ <25%) | ++ (5%≤ ++ <25%) | ++ (5%≤ ++ <25%) | + (LOQ≤ + <5%) | ++ (5%≤ ++ <25%) | ++ (5%≤ ++ <25%) | ++++ (50%≤ ++++) |  |  |
| CNC[C@H]1OCCc2cc3c(cc21)OCO3 (stereo in doubt) [Example 5, (S)-1-(7,8-dihydro-5H-[1,3]dioxolo[4,5-g]isochromen-5-yl)-N-methylmethanamine] | > 30 mg/kg | + (LOQ≤ + <5%) | ++ (5%≤ ++ <25%) | ++ (5%≤ ++ <25%) | + (LOQ≤ + <5%) | + (LOQ≤ + <5%) | + (LOQ≤ + <5%) | + (LOQ≤ + <5%) | + (LOQ≤ + <5%) | + (LOQ≤ + <5%) |  |  |
| CNC[C@@H]1OCCc2ccc3c(c21)COC3 [Example 109] |  | + (LOQ≤ + <5%) | + (LOQ≤ + <5%) | ++ (5%≤ ++ <25%) | + (LOQ≤ + <5%) | ++ (5%≤ ++ <25%) | + (LOQ≤ + <5%) | ++++ (50%≤ ++++) | ++ (5%≤ ++ <25%) | ++ (5%≤ ++ <25%) |  | B (>3 to 10 mpk) |
| NC[C@@H]1OCCc2ccc3c(c21)OCO3 [Example 8, (R)-(6,9-dihydro-7H-[1,3]dioxolo[4,5-h]isochromen-9-yl)methanamine] | 3 to 10 mg/kg | + (LOQ≤ + <5%) | ++ (5%≤ ++ <25%) | ++ (5%≤ ++ <25%) | ++ (5%≤ ++ <25%) | ++ (5%≤ ++ <25%) | + (LOQ≤ + <5%) | ++ (5%≤ ++ <25%) | + (LOQ≤ + <5%) | +++ (25%≤ +++ <50%) |  |  |
| CNC[C@H]1OCc2c(Cl)cccc21 [Example 92, (S)-1-(4-chloro-1,3-dihydroisobenzofuran-1-yl)-N-methylmethanamine] | 10 to 30 mg/kg | + (LOQ≤ + <5%) | ++ (5%≤ ++ <25%) | ++ (5%≤ ++ <25%) | ++ (5%≤ ++ <25%) | ++ (5%≤ ++ <25%) | + (LOQ≤ + <5%) | + (LOQ≤ + <5%) | ++ (5%≤ ++ <25%) | +++ (25%≤ +++ <50%) |  |  |
| CNC[C@@H]1OCCc2c(F)ccc(F)c21 [Example 31, (R)-1-(5,8-difluoroisochroman-1-yl)-N-methylmethanamine] | < 3 mg/kg | + (LOQ≤ + <5%) | ++ (5%≤ ++ <25%) | ++ (5%≤ ++ <25%) | ++ (5%≤ ++ <25%) | ++++ (50%≤ ++++) | + (LOQ≤ + <5%) | + (LOQ≤ + <5%) | + (LOQ≤ + <5%) | + (LOQ≤ + <5%) |  |  |
| CNC[C@@H]1OCCc2cc3c(cc21)OCO3 (stereo in doubt) [Example 6, (R)-1-(7,8-dihydro-5H-[1,3]dioxolo[4,5-g]isochromen-5-yl)-N-methylmethanamine] | 10 to 30 mg/kg | + (LOQ≤ + <5%) | + (LOQ≤ + <5%) | ++ (5%≤ ++ <25%) | + (LOQ≤ + <5%) | + (LOQ≤ + <5%) | ++ (5%≤ ++ <25%) | ++ (5%≤ ++ <25%) | + (LOQ≤ + <5%) | ++++ (50%≤ ++++) |  |  |
